According to PMC9458217, “Synthesis and Biological Evaluation of Cassane Diterpene (5α)-Vuacapane-8(14), 9(11)-Diene and of Some Related Compounds” (Molecules, 2022):
Values after ≈ are worked out from the molar mass of the structure shown. Values joined by “and” are separate entries in the source; they are usually repeats but may differ in a detail not shown here. Equal entries are not always repeated. Where two headings read alike, the source gives them in different places.

Experiments:
[1] = tested on: RAW 264.7 monocyte/macrophage murine cells; assay: MTT cytotoxicity on RAW 264.7 cells; type: cell-based; details: Mus musculus
Method: MTT is transformed to formazan in cells with metabolism capacity (viable cells), as the number of viable cells is proportional to formazan concentration; this assay was used to determine the cytotoxicity of the compounds.
In all experiments, subconfluent monolayer cells were used.
The effect of compounds on the cell viability was determined by the MTT method (Sigma, St. Louis, MO, USA). The cytotoxicity of the compounds was detected by measuring the absorbance of MTT dye staining of cells with metabolism capacity. […] Finally, after 72 h, 100 μL of MTT solution (0.5 mg/mL) in 50% of PBS and 50% of the medium was added to each well. After 1.5 h of incubation, formazan was re-suspended in 100 μL of DMSO, and each concentration was tested in triplicate.
(§1) Experimental cytotoxicity data were fitted to a sigmoidal function (y = ymax/ (x/a)^−b) by non-linear regression. […] Similar analyses were performed to obtain the IC50 of NO production (IC50 NO). All shown data are representative of at least two independent experiments performed in triplicate. All quantitative data were summarized as the means ± standard deviation (SD).

[2] = tested on: HT29 colon adenocarcinoma cells; assay: HT29 cell cycle arrest and distribution, flow cytometry with PI; type: cell-based, human; details: for decrease in S phase cell percentage / increase of G0/G1 phase population with respect to untreated control: 72 h
Excerpt: Flow cytometry was used to measure DNA ploidy and to determine possible alterations in cell cycle profiles. […]. […] […]. Changes in the G2/M phase were less significant. Although changes in the cell cycle were observed, they were of a lower magnitude and insignificant for compound 20. Therefore, those changes could be produced by the apoptotic process activation and not by cytostatic or differentiation process induction. […]. Further assays will be necessary to asseverate this point.
The method was performed by flow cytometry after propidium iodide staining (PI). […]. After that, cells were stored on ice and were stained with 20 µL of 1 mg/mL PI solution just before measurement. Approximately 10 × 10^3 cells were analysed in each experiment. The experiments were performed three times with two replicates per assay. Finally, the samples were analysed using a flow cytometer and the number of cells in each stage of the cell cycle was estimated by fluorescence-associated cell sorting (FACS) at 488 nm in an Epics XL flow cytometer (Coulter Corporation, Hialeah, FL, USA).

[3] = tested on: HT29 cells; assay: Annexin V-FITC/PI flow cytometry (apoptosis) in HT29 cells; type: cell-based, human; details: 72 h
Method: Most currently used anticancer drugs trigger the apoptosis process as a key target and induce it in cancer cells. Phosphatidylserine (PS) externalization is a typical characteristic of early phase apoptosis. […].
As such wise, apoptosis was assessed by flow cytometry using a FACScan (fluorescence-activated cell sorter) flow cytometer (Coulter Corporation, Hialeah, FL, USA). For this assay, 5 × 10^4 HT29 cells were plated in 24-well plates with 1.5 mL of medium and incubated for 24 h. […] The cells were collected and resuspended in a binding buffer (10 mM HEPES/NaOH, pH 7.4, 140 mM NaCl, 2.5 mM CaCl2). At room temperature in darkness, Annexin V-FITC conjugate (1 μg/mL) was then added and incubated for 15 min. Cells were stained with 5 μL of 1 mg/mL PI solution, just before the analysis. In each experiment, approximately 10 × 10^3 cells were analyzed, and the experiment was duplicated twice.

[4] = tested on: colon adenocarcinoma HT29 cells; assay: Mitochondrial membrane potential, Rh123/PI flow cytometry in HT29 cells; type: cell-based, human; details: HT29, IC50 and IC80 concentrations, 72 h
Excerpt: The apoptotic effects of anticancer agents can occur through the activation of two major apoptotic pathways: intrinsic and extrinsic apoptotic pathways, Thus, the study of the loss of the mitochondrial membrane potential (MMP) of tumor cells can provide information on the activation mechanism and the apoptotic pathway induced in response to anticancer compounds. When the mitochondria undergo disruption and are involved in the loss of MMP, the activation is then intrinsic (mitochondrial).
The electrochemical gradient across the mitochondrial membrane was studied by analytical flow cytometry using dihydrorhodamine (DHR). […] The medium renewal was achieved by adding fresh medium with DHR to a final concentration of […]. […] The fluorescence intensity was measured using a FACScan flow cytometer (fluorescence-activated cell sorter). The experiments were performed three times with two replicates per assay.

[5] = tested on: LPS-induced J774.A1 macrophage cells; design: method as in PMID 34990974; details: 50 μM, natural compounds; cited from earlier work
[6] = tested on: HT29 human colorectal adenocarcinoma cell line; assay: MTT cytotoxicity on HT29 cells; details: HT-29, 72 h
Method: (§2) These studies were performed using the MTT assay, based on formazan dye formation and expressed as a percentage with respect to untreated control cells (100% of cell metabolism).
(§3) The effect of compounds on the cell viability was determined by the MTT method [27] (Sigma, St. Louis, MO, USA). The cytotoxicity of the compounds was detected by measuring the absorbance of MTT dye staining of cells with metabolism capacity. […] Finally, after 72 h, 100 μL of MTT solution (0.5 mg/mL) in 50% of PBS and 50% of the medium was added to each well. After 1.5 h of incubation, formazan was re-suspended in 100 μL of DMSO, and each concentration was tested in triplicate.
(§4) Experimental cytotoxicity data were fitted to a sigmoidal function (y = ymax/ (x/a)^−b) by non-linear regression. […] All shown data are representative of at least two independent experiments performed in triplicate. All quantitative data were summarized as the means ± standard deviation (SD).

[7] = tested on: LPS-stimulated RAW 264.7 murine macrophage cells; assay: Inhibition of NO production (nitrite, Griess reaction) in LPS-stimulated RAW 264.7 cells; type: cell-based; details: LPS-activated RAW 264.7, 72 h of incubation
Method: The activation of the inflammatory process induces nitric oxide, NO, released as a second messenger. NO production can be used as the main indicator to assess inflammatory activity, which can be measured using nitrite (NO^2–) quantification (proportional to the released NO), determined through the Griess reaction. […] Inhibition percentages were calculated with respect to the increase between positive control (only LPS treated control cells) and negative control (untreated control cells).
The absorbance was referred to nitrite standard curve to determine the concentration of nitrite in the supernatant of each experimental sample. The percentage of NO production was determined, assigning 100% at the increase between negative control (untreated cells) and positive control (cells only treated with 10 μg/mL of LPS).
as §1

[8] = tested on: RAW 264.7 cells, activated by LPS; assay: Cell cycle distribution of LPS-activated RAW 264.7 cells, flow cytometry with PI; type: cell-based, murine
Method: The cell-cycle distribution was analyzed by flow cytometry with propidium iodide (IP) staining (Figure 3). Significant growth arrest of the cell cycle in LPS-induced RAW 264.7 cells produced 100% detention in the G0/G1 phase (positive control) compared to the negative control (49.6%). After incubation with compound 20, the percentage of cells found in the G0/G1 phase was 29%, 32%, and 36%, respectively, at the assayed concentrations. Similar results were found for compound 16 (35%, 38%, and 39%) after 72 h of incubation at the same concentrations. This decrease was accompanied by the consequent increase in the number of cells in the S phase: 70%, 68%, and 56%, respectively, for compound 20, and 63%, 61%, and 59% for compound 16. […] This recovery of the cell cycle with respect to control cells (only LPS treated) could be a consequence of the anti-inflammatory effect produced by the tested compounds, which increase cell division, rescuing RAW 264.7 cells from LPS-induced arrest during their monocyte/macrophage differentiation process.
DNA content is directly proportional to the PI fluorescence; it allows us to determine the percentage of cells in each cell cycle phase. Using a fluorescence-activated cell sorter (FACS) at 488 nm in an Epics XL flow cytometer (Coulter Corporation, Hialeah, FL, USA), cell subpopulations could be visualized with different DNA contents. […] By treating cells only with LPS, the positive control was performed. However, the negative control was prepared, exposing cells […]. After treatment, cells were washed twice with PBS and trypsine solution, then resuspended in TBS 1X (10 Mm Tris, 150 Mm NaCl) and then Vindelov buffer (100 mM Tris, 100 Mm NaCl, 10 mg/mL Rnasa, 1 mg/mL PI, pH 8) was added. The samples were placed for 15 min on ice. Immediately before FACS analysis, cells were stained with 20 μL of 1 mg/mL PI solution. Data were analyzed to determine the percentage of cells in each cell cycle phase (G0/G1, S, and G2/M).

[9] = tested on: HepG2 human hepatocarcinome cell-line; assay: MTT cytotoxicity on HepG2 cells; details: HepG2, 72 h
Method: as §2, §3, §4

[10] = tested on: Staphylococcus aureus; design: method as in PMID 17418286; details: cited from earlier work
[11] = tested on: Micrococcus flavus; design: method as in PMID 17418286; details: cited from earlier work
[12] = tested on: NO; design: method as in PMID 34990974; details: read-out: NO inhibition IC50; cited from earlier work

Cc1c2c(cc3c1CCC1C(C)(C)CCCC31C)OC(O)C2 (centres unmarked) [Compound 6, pterolobirin G]
IC20 ([1]; RAW264.7, 72 h): 12.7 ± 0.3 µg/mL (≈ 42.2 µM)
IC50 ([1]; RAW264.7, 72 h): 15 ± 0.32 µg/mL (≈ 49.9 µM)
IC80 ([1]; RAW264.7, 72 h): 18.6 ± 0.45 µg/mL (≈ 61.8 µM)
decrease in S phase cell percentage ([2]; HT29, IC50 concentration): 17.3%
increase of G0/G1 phase population with respect to untreated control ([2]; HT29, IC50 concentration): 13.6%
decrease in S phase cell percentage ([2]; HT29, IC80 concentration): 30.36%
increase of G0/G1 phase population with respect to untreated control ([2]; HT29, IC80 concentration): 29%
total apoptosis (early plus late apoptotic cells) ([3]; HT29, IC50 concentration): 18.30%
early apoptosis ([3]; HT29, IC80 concentration): 48.83%
late apoptosis ([3]; HT29, IC80 concentration): 23%
total apoptosis (early plus late apoptotic cells) ([3]; HT29, IC80 concentration): 80%
changes in mitochondrial membrane potential (MMP), Rh123 staining [4]: did not produce any changes in MMP
inhibition of NO production [5]: did not show any significant inhibition of NO production
IC50 [6]: ~3 µg/mL (≈ 9.99 µM)

Cc1c(C=O)c(O)cc2c1CC[C@H]1C(C)(C)CCC[C@]21C [Compound 20]
IC20 ([1]; RAW264.7, RAW 264.7, MTT, 72 h of incubation, 20% cell viability inhibition, read-out: IC20): 7.86 ± 3.97 µg/mL (≈ 27.4 µM)
IC80 ([1]; RAW264.7, RAW 264.7, MTT, 72 h of incubation, 80% cell viability inhibition, read-out: IC80): 9.35 ± 0.95 µg/mL (≈ 32.6 µM)
IC50 ([1]; RAW264.7, RAW 264.7, MTT, 72 h of incubation, read-out: IC50): 8.34 ± 2.51 µg/mL (≈ 29.1 µM)
IC50 NO [7]: 2.98 ± 0.04 µg/mL (≈ 10.4 µM)
IC50 ([7]; Mus musculus, RAW264.7, 72 h): 5.71 ± 0.14 µg/mL (≈ 19.9 µM)
cells in the S phase ([8]; ¼ IC50, 72 h): 70%
percentage of cells in the G0/G1 phase ([8]; ¼ IC50, 72 h, LPS control 100%, negative control 49.6%): 29%
changes in the G2/M phase ([8]; ¼, ½ and ¾ IC50, 72 h): not significant
cells in the S phase ([8]; ½ IC50, 72 h): 68%
percentage of cells in the G0/G1 phase ([8]; ½ IC50, 72 h): 32%
cells in the S phase ([8]; ¾ IC50, 72 h): 56%
percentage of cells in the G0/G1 phase ([8]; ¾ IC50, 72 h): 36%
cell cycle arrest at the G0/G1 phase (cell percentage) ([2]; HT29, IC50 concentration): 63.6%
decrease in S phase cell percentage ([2]; HT29, IC50 concentration): 6%
increase of G0/G1 phase population with respect to untreated control ([2]; HT29, IC50 concentration): 6%
cell cycle arrest at the G0/G1 phase (cell percentage) ([2]; HT29, IC80 concentration): 66.6%
decrease in S phase cell percentage ([2]; HT29, IC80 concentration): 10.7%
increase of G0/G1 phase population with respect to untreated control ([2]; HT29, IC80 concentration): 9%
early apoptosis ([3]; HT29, IC50 concentration): 27.57%
late apoptosis ([3]; HT29, IC50 concentration): 49.97%
total apoptosis (early plus late apoptotic cells) ([3]; HT29, IC50 concentration): 76.25%
early apoptosis ([3]; HT29, IC80 concentration): 41.40%
late apoptosis ([3]; HT29, IC80 concentration): 45.40%
total apoptosis (early plus late apoptotic cells) ([3]; HT29, IC80 concentration): 80% and 86.8%
changes in mitochondrial membrane potential (MMP), Rh123 staining [4]: did not produce any changes in MMP
IC50 ([6]; HT29, MTT, 72 h): ~3 µg/mL (≈ 10.5 µM)
IC50 [9]: 8.41 ± 0.3 µg/mL (≈ 29.4 µM)

COC(=O)[C@@]1(C)CCC[C@]2(C)c3cc4occc4c(C)c3CC[C@@H]12 [benthaminin 1]
MIC [10]: 47.8 µM (≈ 15.6 µg/mL)
MIC [11]: 47.8 µM (≈ 15.6 µg/mL)

CC(=O)O[C@H]1Cc2c(cc3occc3c2C)[C@@]2(C)CCCC(C)(C)[C@H]12 [sucutinirane C]
IC50 [12]: 24.4 ± 1.34 µM
